# Patent publication US20060153781A1, “Repair of dna mutagenic damage” (Novogen Research Pty Ltd, a Corporation, priority 2002, published 2006)
# Where “and” joins values, the source holds several entries; their conditions need not be identical. Equal entries are not always repeated.
# How the values were obtained:
# Format in all cases: in vivo
# [1] = tested on: CPDs in the epidermis; assay: Cyclobutane pyrimidine dimer formation in skin biopsies of human volunteers after UV irradiation (immunohistochemistry)
# Experimental: (§1) Equol was applied to the skin of five human volunteers immediately after, and at 4 hours and 6 hours post-UV irradiation. A control lotion was also used containing no equol. Twenty-four hours after UV irradiation, skin biopsies were taken and MT production was measured using immunohistochemistry.
# The skin biopsies from the five human volunteers from Example 2 were tested for cyclobutane pyrimidine dimer formation using immunohistochemistry.
# [2] = tested on: p53 in the epidermis; assay: P53 staining in skin biopsies of human volunteers following UV irradiation
# Experimental: as §1
# The skin biopsies from the five human volunteers from Example 2 were tested for P53 staining following UV irradiation.
# [3] = tested on: cyclobutane pyrimidine dimers (CPD) in skin of hairless mice; assay: Induction of epidermal CPD-positive cells in skin of hairless mice exposed to SSUV (immunohistochemistry); conditions: for reduction in the number of CPD compared with control group (vehicle alone): equol lotion 20 μM for 7 days prior and 5 days after SSUV, p<0.05; for CPD + ve cells/linear cm: hairless mice; for reduction of dimers: equol applied immediately after SSUV exposure and continuing for 5 d
# Source text: The effect of equol on the induction of CPD was examined in the skin of hairless mice (a standard model for human dermatological investigations) exposed to solar simulated ultraviolet radiation (SSUV). At various time points after SSUV, dorsal skin was excised, fixed for 6 hr in a standard fixing medium (HistoChoice™, Amersco Inc, Solon, Ohio, USA), processed and paraffin-embedded. Pyrimidine dimers were detected immunohistochemically using citric acid antigen retrieval and the H3 anti-pyrimidine dimer antibody. The number of dimer-positive cells was counted manually in 30 fields per mouse, at 40× magnification.
# [4] = tested on: metallothionein (MT) in the epidermis; assay: MT production in skin biopsies of human volunteers after UV irradiation (immunohistochemistry); conditions: 24 hrs after 2.5 MED SSUV
# Experimental: as §1
# Approximately half of the cells in the basal epidermis constitutively expressed MT at baseline, whereas almost none of the cells in the more superficial layers of the epidermis expressed MT. At 24 hrs after exposure to 2.5 MED SSUV, there were apparent differences in the expression of MT in the basal layers of the epidermis between sections treated with equol and those treated with DMSO in base lotion (vehicle). In all 5 participants, the expression of MT was higher in the skin treated with equol, with the magnitude of the difference ranging from +4% to +21%.
# [5] = 24 hrs after 2.5 MED SSUV, lotion containing equol 200 μM, one row per subject (five volunteers)
# [6] = 24 hrs after 2.5 MED SSUV, equol 200 μM topical, one row per subject (five volunteers)
# [7] = equol 200 μM topical, one row per subject (five volunteers)
structure (smiles),measurement,setting,value
Oc1ccc(C2COc3cc(O)ccc3C2)cc1 (stereo not shown) [equol],"CPD staining, Basal epidermis, % positive cells",[1]; [5],15% and 0% and 10% and 25% (2×)
same,"CPD staining, Basal epidermis, neg (cell count)",[1]; [5],94 and 279 and 181 and 134 and 125
same,"CPD staining, Basal epidermis, pos (cell count)",[1]; [5],16 and 1 and 21 and 44 and 41
same,"CPD staining, Total epidermis, % positive cells",[1]; [5],19% and 5% and 25% and 31% (2×)
same,"CPD staining, Total epidermis, neg (cell count)",[1]; [5],164 and 349 and 279 and 213 and 188
same,"CPD staining, Total epidermis, pos (cell count)",[1]; [5],39 and 18 and 92 and 94 and 85
same,"CPD staining, Upper epidermis, % positive cells",[1]; [5],25% and 20% and 42% and 39% and 41%
same,"CPD staining, Upper epidermis, neg (cell count)",[1]; [5],70 (2×) and 98 and 79 and 63
same,"CPD staining, Upper epidermis, pos (cell count)",[1]; [5],23 and 17 and 71 and 50 and 44
same,"CPD-positive cells, equol lotion vs DMSO in base lotion (vehicle) (in words)","[1]; 24 hrs after UV exposure, 4 out of 5 participants",proportionally less CPD-positive cells
same,"CPD damage, data from all participants pooled (in words)","[1]; at 24 hours, pooled participants",moderately lower levels of CPD damage
same,"p53 staining, Basal epidermis, % positive cells",[2]; [6],22% and 8% and 11% and 6% and 26%
same,"p53 staining, Basal epidermis, neg (cell count)",[2]; [6],161 and 172 and 250 and 140 and 118
same,"p53 staining, Basal epidermis, pos (cell count)",[2]; [6],46 and 15 and 31 and 9 and 41
same,"p53 staining, Total epidermis, % positive cells",[2]; [6],26% and 21% and 9% and 4% and 25%
same,"p53 staining, Total epidermis, neg (cell count)",[2]; [6],270 and 337 and 500 and 287 and 227
same,"p53 staining, Total epidermis, pos (cell count)",[2]; [6],94 and 87 and 50 and 13 and 76
same,"p53 staining, Upper epidermis, % positive cells",[2]; [6],31% and 30% and 7% and 3% and 24%
same,"p53 staining, Upper epidermis, neg (cell count)",[2]; [6],109 (2×) and 165 and 250 and 147
same,"p53 staining, Upper epidermis, pos (cell count)",[2]; [6],48 and 72 and 19 and 4 and 35
same,percentage of p53 expression in upper and/or basal epidermis (in words),"[2]; 24 hrs after UV exposure, equol treated vs vehicle",reduced in four out of five equol treated subjects
same,reduction of percentage of p53 staining compared with vehicle controls,"[2]; subjects N13PDO and N14GBO, 24 hrs after UV exposure, 'generally'",more than 50%
same,reduction in the number of CPD compared with control group (vehicle alone),[3]; 1 hour after SSUV,54%
same,CPD + ve cells/linear cm,"[3]; 1 hr post-SSUV, equol lotion 20 μM daily for 7 days prior to and following 1×3 MED SSUV",238 ± 22 cells/linear cm
same,reduction of dimers,[3]; 1 day post-irradiation,23%
same,reduction in the number of CPD compared with control group (vehicle alone),[3]; 24 hours after SSUV,50%
same,CPD + ve cells/linear cm,"[3]; 24 hr post-SSUV, equol lotion 20 μM daily for 7 days prior to and following 1×3 MED SSUV",167 ± 17 cells/linear cm
same,reduction in the number of CPD compared with control group (vehicle alone),[3]; 48 hours after SSUV,26%
same,reduction of dimers,"[3]; 2 d post-irradiation, data not shown",42%
same,effect on dimer induction and repair (in words),[3]; equol lotion 20 μM daily for 7 days prior to and following 1×3 MED SSUV,"reduce the initial induction of dimers, and to enhance the rate of their repair"
same,expression of MT in skin treated with equol vs vehicle (in words),[4]; all 5 participants,higher
same,"MT staining, Basal epidermis, % positive cells",[4]; [7],76% and 59% and 69% and 77% and 60%
same,"MT staining, Basal epidermis, neg (cell count)",[4]; [7],118 and 188 and 239 and 154 and 157
same,"MT staining, Basal epidermis, pos (cell count)",[4]; [7],380 and 271 and 531 and 522 and 233
same,"MT staining, Total epidermis, % positive cells",[4]; [7],56% and 50% and 63% and 62% and 51%
same,"MT staining, Total epidermis, neg (cell count)",[4]; [7],303 and 270 and 315 and 323 and 225
same,"MT staining, Total epidermis, pos (cell count)",[4]; [7],382 and 271 and 539 and 527 and 234
same,"MT staining, Upper epidermis, % positive cells",[4]; [7],1% (2×) and 0% and 10% and 3%
same,"MT staining, Upper epidermis, neg (cell count)",[4]; [7],185 and 82 and 76 and 169 and 68
same,"MT staining, Upper epidermis, pos (cell count)",[4]; [7],2 and 0 and 8 and 5 and 1
